Here are results for 19 compounds from patent US9133122B2, “Amide compounds, compositions and uses thereof” (EVOTEC AG, priority 2008, dated 2015).

The target of test [1] is T1, hP2X2/3H (Homo sapiens, UniProt P56373+Q9UBL9).
T1 construct: expressed in transfected cells
T1 sequence (P56373 1-397): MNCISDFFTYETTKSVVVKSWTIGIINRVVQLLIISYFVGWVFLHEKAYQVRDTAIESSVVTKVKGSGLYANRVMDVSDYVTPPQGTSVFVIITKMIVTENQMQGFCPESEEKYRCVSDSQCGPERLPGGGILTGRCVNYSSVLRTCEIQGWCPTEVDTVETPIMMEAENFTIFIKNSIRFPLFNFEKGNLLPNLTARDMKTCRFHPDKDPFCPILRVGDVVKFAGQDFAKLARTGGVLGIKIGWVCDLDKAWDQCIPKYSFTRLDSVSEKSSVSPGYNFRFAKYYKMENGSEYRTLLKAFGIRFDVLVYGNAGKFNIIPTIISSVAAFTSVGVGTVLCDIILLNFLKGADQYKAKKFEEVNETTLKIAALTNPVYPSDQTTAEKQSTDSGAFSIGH
T1 sequence (Q9UBL9 1-471): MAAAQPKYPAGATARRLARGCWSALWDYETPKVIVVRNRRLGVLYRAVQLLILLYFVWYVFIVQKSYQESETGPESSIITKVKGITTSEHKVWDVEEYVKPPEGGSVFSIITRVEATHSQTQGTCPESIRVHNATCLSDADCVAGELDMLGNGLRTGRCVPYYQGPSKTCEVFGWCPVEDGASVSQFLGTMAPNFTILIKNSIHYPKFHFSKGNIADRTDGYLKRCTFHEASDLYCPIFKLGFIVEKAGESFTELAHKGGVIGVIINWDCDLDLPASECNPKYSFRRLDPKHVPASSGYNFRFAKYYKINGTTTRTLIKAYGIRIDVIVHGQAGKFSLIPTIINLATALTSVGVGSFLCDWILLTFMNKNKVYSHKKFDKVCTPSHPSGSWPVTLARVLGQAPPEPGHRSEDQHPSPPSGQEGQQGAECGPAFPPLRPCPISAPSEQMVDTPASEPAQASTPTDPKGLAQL
Put plainly: Calcium uptake assay (Ca influx), P2X antagonist assay, P2X2/3 heteromer. The format is cell-based. As to conditions: inhibition of agonist-induced calcium influx. The source says: (§1) Human P2X3 (Accession no. NM_002559), P2X2 (Accession no. NM_170682) and Rat P2X3 (Accession no. NM_031075) and P2X2 (Accession no. NM_053656) are cloned into a mammalian expression vector (e.g., pcDNAS/TO or pcDNA3 Invitrogen). The human P2X2/3 chimera clone is created as described by Neelands et al, and then cloned into an expression vector as above. Receptors are expressed in cells (e.g., HEK293 or 1321N1 (obtained from the ECACC)) via transient transfection using standard lipid mediated transfection, or by creation of stable transfectants for each receptor. For expression of the P2X2/3 heteromeric receptor, the P2X3 expression vector is stably transfected into a cell line already stably expressing P2X2. P2X2/3 heteromer function is isolated using pharmacological methods. Cell lines are maintained in DMEM+5% Glutamax, the appropriate level of selective antibiotic, and 10% heat inactivated FBS.
(§2) Functional activity of compounds at the P2X receptor is determined by measuring their ability to inhibit agonist-induced calcium influx. Compounds are tested for antagonist activity against the P2X2/3 chimera, the P2X3 homomer, or the P2X2/3 heteromer. At the start of each screening day, the agonist EC50 is determined. Compound % inhibition or IC50s are subsequently determined using a predetermined agonist concentration (EC50-90 depending on cell line) as a stimulus. The agonists used are αβMeATP, ATP, or other ATP analogs. Compounds may be tested at concentrations ranging from 1 pM to 10 μM.
(§3) To test for antagonist activity, cells expressing the appropriate receptor are seeded onto 96 or 384 well plates 18-24 hours prior to assay. On the day of the assay, cells are loaded with calcium-sensitive fluorescent dye (e.g., Fluo-4 no wash reagent-Invitrogen cat#F36206, or the BD™ PBX Calcium Assay Kit-BD cat #640175) in Hank's Buffered Salt Solution (HBSS) with up to 10 mM supplemental CaCl2. Plates are incubated at 37° C. and then equilibrated at room temperature. Antagonism of agonist-induced calcium influx is measured using a fluorescent imaging plate reader (e.g. FLIPR^TETRA, Molecular Devices, Sunnyvale, Calif.). The assay comprises two stages: a pre-treatment phase followed by a treatment phase. Compounds may be tested as follows: For the pre-treatment phase, 50 μL of 3× concentration of test compound in HBSS is added to cells containing 100 μL of dye loading media to achieve a final concentration of 1× test compound. For the treatment phase, at a set interval after pre-treatment (1-30 minutes), 50 μL of 1× test compound plus 4× agonist solution is added, resulting in a final concentration of 1× compound and 1× agonist. Fluorescence is measured at 0.1-3 second intervals—with an excitation wavelength of 494 nm and an emission wavelength of 515 nm. Responses are measured as (peak fluorescence after agonist addition) minus (baseline fluorescence prior to treatment). Percent inhibition is calculated as follows:
(§4) [formula] IC50 values are determined by analyzing dose response data in a 4 parameter logistic fit using GraphPad Prizm.
(§5) The following compounds have been or can be prepared according to the synthetic methods described herein. A calcium uptake assay was performed as described above and the activity of each compound is expressed as follows: […]

The target of test [2] is T2, hP2X3 (Homo sapiens, UniProt P56373).
T2 construct: expressed in transfected cells
T2 sequence (P56373 1-397): T1 sequence (P56373 1-397)
Put plainly: Calcium uptake assay (Ca influx), P2X antagonist assay, P2X3 homomer. The format is cell-based. As to conditions: inhibition of agonist-induced calcium influx.
Description: as §1, §2, §3, §4, §5

Turning to `COc1ncc(-c2cc(C(=O)NCc3ccc(C)nc3)cc(-c3ccc(C)cn3)c2)cn1` [Compound 16, 3-(2-Methoxy-pyrimidin-5-yl)-5-(5-methyl-pyridin-2-yl)-N-(6-methyl-pyridin-3-ylmethyl)-benzamide], the IC50 in test [1] was 0.269 µM; in test [2] it was 0.0956 µM.

Consider `Cc1ccc(-c2cc(C(=O)N[C@H](C)CN3CCOCC3)cc(-c3cc(C(F)(F)F)ccc3C#N)c2)nc1` [Compound 80, (R)-2′-cyano-5-(5-methylpyridin-2-yl)-N-(1-morpholinopropan-2-yl)-5′-(trifluoromethyl)biphenyl-3-carboxamide], for which the values for the 50% inhibitory concentration (IC50) in test [1] and in test [2] were 0.218 µM and 0.351 µM, respectively.

In the case of `Cc1ccc(-c2cc(C(=O)N[C@H](C)c3cnc(C)nc3)cc(-c3cccc(F)c3F)c2)nc1` [Compound 36, 2′,3′-Difluoro-5-(5-methyl-pyridin-2-yl)-biphenyl-3-carboxylic acid [(R)-1-(2-methyl-pyrimidin-5-yl)-ethyl]-amide], the IC50 in test [1] worked out at 0.0328 µM; in test [2] it was 0.0654 µM.

For the compound `Cc1ccc(-c2cc(C(=O)N[C@H](C)CN3CCOCC3)cc(-c3cnccc3C#N)c2)c(C#N)c1` [Compound 87, (R)-2′-Cyano-5-(4-cyanopyridin-3-yl)-4′-methyl-N-(1-morpholinopropan-2-yl)biphenyl-3-carboxamide], the results for the IC50 in test [1] and in test [2] were 0.0186 µM and 0.0222 µM, respectively.

Regarding `Cc1ccc(-c2cc(C(=O)N[C@H](C)c3cnc(C)nc3)cc(-c3cnccc3C#N)c2)nc1` [Compound 55, 3-(4-Cyano-pyridin-3-yl)-5-(5-methyl-pyridin-2-yl)-N-[(R)-1-(2-methyl-pyrimidin-5-yl)-ethyl]-benzamide], the figures for the 50% inhibitory concentration (IC50) in test [1] and in test [2] were 0.0275 µM and 0.0127 µM, respectively.

On to `Cc1ncc([C@@H](C)NC(=O)c2cc(-c3ccccn3)cc(-c3ccccc3C#N)c2)cn1` [Compound 43, 2′-Cyano-5-pyridin-2-yl-biphenyl-3-carboxylic acid [(R)-1-(2-methyl-pyrimidin-5-yl)-ethyl]-amide], for which the half-maximal inhibitory concentration (IC50) in test [1] came to 0.127 µM; in test [2] it was 0.0241 µM.

In the case of `Cc1ccc(-c2cc(C(=O)N[C@H](C)c3cnc(C)nc3)cc(N3CCCCC3=O)c2)cc1` [Compound 39, (R)-4′-Methyl-N-(1-(2-methylpyrimidin-5-yl)ethyl)-5-(2-oxopiperidin-1-yl)biphenyl-3-carboxamide], the IC50 in test [1] was 0.082 µM; in test [2], 0.0388 µM.

For the compound `COc1ccccc1-c1cc(C(=O)NCc2ccc(C)nc2)cc(-c2ccc(C)cn2)c1` [Compound 18, 2′-Methoxy-5-(5-methyl-pyridin-2-yl)-biphenyl-3-carboxylic acid (6-methyl-pyridin-3-ylmethyl)-amide], the IC50 in test [1] was 0.0709 µM; in test [2], 0.0535 µM.

For the compound `Cc1ccc(-c2cc(C(=O)N[C@H](C)c3cnc(C)nc3)cc(-c3ccccc3CO)c2)nc1` [Compound 34, 2′-Hydroxymethyl-5-(5-methyl-pyridin-2-yl)-biphenyl-3-carboxylic acid [(R)-1-(2-methyl-pyrimidin-5-yl)-ethyl]-amide], the figures for the IC50 in test [1] and in test [2] were 0.0184 µM and 0.0211 µM, respectively.

Turning to `Cc1ccc(-c2cc(C(=O)NCc3ccc(C)nc3)cc(N3CCC[C@@H]3CO)c2)nc1` [Compound 63, 3-((R)-2-Hydroxymethyl-pyrrolidin-1-yl)-5-(5-methyl-pyridin-2-yl)-N-(6-methyl-pyridin-3-ylmethyl)-benzamide], the IC50 in test [1] amounted to 0.0257 µM; in test [2], 0.0118 µM.

Take `COCC(CO)NC(=O)c1cc(-c2ccc(C)cn2)cc(-c2cc(C)ccc2C#N)c1` (centres unmarked) [Compound 74, 2′-Cyano-5′-methyl-5-(5-methyl-pyridin-2-yl)-biphenyl-3-carboxylic acid (2-hydroxy-1-methoxymethyl-ethyl)-amide]: the values for the concentration for half-maximal inhibition (IC50) in test [1] and in test [2] were 5.58 µM and 0.138 µM, respectively.

As for `Cc1ccc(-c2cc(C(=O)NCc3ccc(C)nc3)cc(-c3ccc(C)cc3C#N)c2)nc1` [Compound 35, 2′-Cyano-4′-methyl-5-(5-methyl-pyridin-2-yl)-biphenyl-3-carboxylic acid (6-methyl-pyridin-3-ylmethyl)-amide], the IC50 in test [1] was 0.0356 µM; in test [2], 0.0508 µM.

Regarding `Cc1ccc(-c2cc(C(=O)N[C@H](C)CN3CCOCC3)cc(-c3cc(C)ccc3C#N)c2)nc1` [Compound 73, 2′-Cyano-5′-methyl-5-(5-methyl-pyridin-2-yl)-biphenyl-3-carboxylic acid ((R)-1-methyl-2-morpholin-4-yl-ethyl)-amide], the IC50 was 0.34 µM in test [1] and 0.104 µM in test [2].

Consider `COc1ccc(-c2cc(C(=O)NCc3ccc(C)nc3)cc(-c3ccc(C)cc3)c2)c(OC)c1` [Compound 9, 2″,4″-Dimethoxy-4-methyl-[1,1′;3′,1″]terphenyl-5′-carboxylic acid (6-methyl-pyridin-3-ylmethyl)-amide], for which the figures for the 50% inhibitory concentration (IC50) in test [1] and in test [2] were 0.415 µM and 0.484 µM, respectively.

Turning to `Cc1ccc(-c2cc(C(=O)NCc3ccc(C)nc3)cc(N3CCC[C@H]3CO)c2)cc1` [Compound 59, (S)-5-(2-(Hydroxymethyl)pyrrolidin-1-yl)-4′-methyl-N-((6-methylpyridin-3-yl)methyl)biphenyl-3-carboxamide], the concentration for half-maximal inhibition (IC50) is 0.127 µM in test [1] and 0.0658 µM in test [2].

As to `Cc1ccc(-c2cc(C(=O)NCc3ccc(C)nc3)cc(-c3ccccc3F)c2)cc1` [Compound 6, 2″-Fluoro-4-methyl-[1,1′;3′,1″]terphenyl-5′-carboxylic acid (6-methyl-pyridin-3-ylmethyl)-amide], the IC50 worked out at 0.418 µM in test [1] and 0.342 µM in test [2].

On to `Cc1ccc(-c2cc(C(=O)N[C@H](C)c3ccc(C)nc3)cc(N3CCCC3=O)c2)cc1` [Compound 51, 4′-Methyl-5-(2-oxo-pyrrolidin-1-yl)-biphenyl-3-carboxylic acid [(R)-1-(6-methyl-pyridin-3-yl)-ethyl]-amide], for which the figures for the half-inhibitory concentration (IC50) in test [1] and in test [2] were 0.037 µM and 0.0238 µM, respectively.

Turning to `Cc1ccc(-c2cc(C(=O)NCc3ccc(C)nc3)cc(-c3cccc(N(C)C)c3)c2)cc1` [Compound 23, 3″-Dimethylamino-4-methyl-[1,1′;3′,1″]terphenyl-5′-carboxylic acid (6-methyl-pyridin-3-ylmethyl)-amide], the figures for the IC50 in test [1] and in test [2] were 4.16 µM and 0.431 µM, respectively.

In the case of `Cc1ccc(-c2cc(C(=O)NCc3ccc(C)nc3)cc(N3CCNCC3=O)c2)cc1` [Compound 61, 4′-Methyl-5-(2-oxo-piperazin-1-yl)-biphenyl-3-carboxylic acid (6-methyl-pyridin-3-ylmethyl)-amide], the half-maximal inhibitory concentration (IC50) in test [1] came out at 2.35 µM; in test [2] it was 0.268 µM.

As a reminder, the IC50 is the concentration that gives 50% inhibition.
